# According to patent publication US20240270737A1, “SMALL MOLECULAR INHIBITORS OF STING SIGNALING COMPOSITIONS AND METHODS OF USE” (STINGINN INC., priority 2021, published 2024):
# Assays:
# [1] = system: IRF3 translocation induced by dsDNA (ISD); experiment: IRF3 translocation inhibition, confocal/immunofluorescence after ISD transfection; assay type: cell-based; conditions: Homo sapiens, % means blockage of IRF3 translocation induced by dsDNA (ISD)
# Experimental: Inhibition of IFNβ expression was measured by Luciferase induction at 24 hours after transfection of ISD. […]. […] FIG. 3H qPCR of IFNβ 1 performed in MEFs treated same as in FIG. 3A. FIG. 3I qPCR of CCL5 performed in MEFs treated same as in FIG. 3A.
# Immunofluorescence Microscopy: Cells were cultured and treated in their appropriate media on Lab-Tek II chamber slides. Cell were fixed with 4% paraformaldehyde for 15 minutes in at 37° C. and permeabilized with 0.05% Triton X-100 for 5 minutes at room temperature. Immunostaining was performed with rabbit-anti-STING polyclonal, rabbit-anti-IRF3 (Santa Cruz Biotechnology) or rabbit-anti-p65 (Cell Signaling) followed by fluorescence conjugated secondary antibodies (FITC-goat-anti-rabbit) (Invitrogen).
# STING activation, Cxcl10 = experiment: STING activation in MEFs stimulated with ISD (qPCR of Cxcl10, Western blot, confocal); assay type: cell-based, mouse
# Experimental: FIG. 1E are photographs showing Western blot analysis in murine fibroblasts (MEFs) treated the same as FIG. 1A, according to an embodiment of the invention;
# FIG. 1F are photographs showing confocal analysis in MEFs treated the same as FIG. 1A, according to an embodiment of the invention;
# MEFs were treated with W1 and then stimulated with cytoplasmic DNA (ISD) and examined Cxcl10 expression by qPCR and STING-dependent phosphorylation of TBK1 and IRF3.
# Mouse embryonic fibroblasts (MEFs) were obtained from E13.5 embryos by a standard procedure. Bone Marrow Derived Macro-phages (BMDM) were isolated from hind-limb femurs of 8-10 weeks old WT and Trex1 KO (TKO) mice. The hematopoietic cells from the bone marrow were cultured in complete DMEM (Invitrogen) including 10 ng/ml of Mouse Recombinant Colony-Stimulating Factor (M-CSF, R&D Systems) for 10 to 14 days.
# Quantitative Real time PCR (qPCR) Total RNA were reverse-transcribed using M-MLV Reverse Transcriptase (Promega). Real-time PCR was performed using Taqman Gene Expression Assay (Applied Biosystems) for innate immune genes and inflammatory cytokines.
# [2] = system: T1, human STING CBD-CTT (152-379); experiment: Thermal shift assay (TSA) binding to purified STING
# T1 construct: made in house; host or cells: E. coli BL21 DE3 RIPL Codon Plus
# From the text: Purified STING protein was used as bait to identify binding compounds, using a thermal shift assay (TSA). A library containing 250,000 compounds (Enamine, Monmouth Jct., NJ) was surveyed. Compounds that bound to STING were then examined for their ability to inhibit STING signaling, see Examples 1-4 vide infra. In the presence of cytosolic DNA species, STING becomes activated to drive the transcription of cytokines such as type I IFN. Compounds binding to STING via TSA were subsequently examined for their ability prevent cytosolic DNA species from activating the type I interferon (IFN) promoter, using a live cell assay. This assay comprised immortalized human fibroblasts (hTERT) that were stably transfected with the type I IFN promoter driving luciferase as well as the CMV promoter driving SEAP (hTERT-pIFNβ-Glu). The ability of the small molecules to prevent activation of the type I IFN promoter and the transcription of luciferase, but not SEAP in response to cytosolic DNA species can be assessed. […]
# Thermal High Throughput Screen: The denaturation profile of purified STING (STING152-379H) was calibrated using a fluorometer equipped with temperature control (a qPCR apparatus with 320 well capacity). […] Curves were measured for STING only and STING+small molecule, and ΔTm was calculated. […]
smiles,measurement,setting,value
"Cc1cc([N+](=O)[O-])ccc1S(=O)(=O)Nc1nc2cc(C(F)(F)F)ccc2[nH]1 [Compound W1, 2-methyl-4-nitro-N-[5-(trifluoromethyl)-1H-1,3-benzodiazol-2-yl]benzene-1-sulfonamide]",inhibition at 25 µM,[1],40 to 50%
same,production of STING-inducible cytokine Cxcl10 in response to ISD,"STING activation, Cxcl10",dramatically decreased
same,binding to STING,[2],binds to STING
